Measured values taken from patent US20250115654A1, “PHARMACEUTICAL COMPOSITION OF GLP-1 RECEPTOR AND GIP RECEPTOR DUAL AGONIST, AND USE THEREOF” (FUJIAN SHENGDI PHARMACEUTICAL CO., LTD., priority 2021, published 2025).
Marks after values point to notes of the source that are not given here. Numbered stars: 1 amine (or outer) side, 2 acyl side, 3 side chain; on linkers, the order of the positions; unused ones are H or OH. Square brackets hold non-standard residues; d marks the D form. Side chains are listed from the residue outwards. Peptide text beside a SMILES is read from it. * marks the point of attachment. C20 diacid = O=C(O)CCCCCCCCCCCCCCCCCCC(=O)*; γGlu = O=C(O)[C@H](CCC(=O)[*:2])N[*:1]; AEEA = NCCOCCOCC(=O)O; Aib = CC(C)(N)C(=O)O

Experiments:
[1] = test system: diet-induced-obesity mice; assay: Viscera/brain ratio for fat mass in different parts of diet-induced obesity mice; assay type: in vivo, C57BL/6 mice
Protocol: High-fat food-induced-obesity male C57BL/6 mice (weighing 35-55 g, aged 10-12 weeks, purchased from Shanghai Jiesijie Laboratory Animal Co., Ltd.) were tested. […] According to the experimental design, the body weight of each mouse was measured and recorded on day 0, day 3, day 6, and so on to day 27, the average body weight of each group of mice was calculated, and body weight change curves were plotted by taking the body weight on the first day as the standard. At the end, the fat and other visceral organs of each part of the mice were taken out and weighed, and the viscera/brain ratio for fat in each part of each mouse was calculated. The effect of the drug on the fat was determined by comparing the change in the viscera/brain ratio for fat of different parts of each group of mice.

[2] = test system: diet-induced-obesity mice; assay: Body weight of diet-induced-obesity mice, subcutaneous administration once every 3 days; assay type: in vivo, C57BL/6 mice

Structure (SMILES): CC[C@H](C)[C@H](NC(=O)[C@H](CCCCN)NC(=O)[C@H](CCC(=O)O)NC(=O)[C@H](CCCCNC(=O)COCCOCCNC(=O)COCCOCCNC(=O)CC[C@H](NC(=O)CCCCCCCCCCCCCCCCCCC(=O)O)C(=O)O)NC(=O)[C@H](Cc1ccc(O)cc1)NC(=O)[C@@H](NC(=O)[C@H](CO)NC(=O)[C@H](Cc1ccc(O)cc1)NC(=O)[C@H](CC(=O)O)NC(=O)[C@H](CO)NC(=O)[C@@H](NC(=O)[C@H](Cc1ccccc1)NC(=O)[C@@H](NC(=O)CNC(=O)[C@H](CCC(=O)O)NC(=O)C(C)(C)NC(=O)[C@@H](N)Cc1ccc(O)cc1)[C@@H](C)O)[C@@H](C)O)[C@@H](C)CC)C(=O)N[C@@H](C)C(=O)N[C@@H](C)C(=O)N[C@@H](CCC(N)=O)C(=O)N[C@@H](CCC(=O)O)C(=O)N[C@@H](Cc1ccccc1)C(=O)N[C@H](C(=O)N[C@@H](CC(N)=O)C(=O)N[C@@H](Cc1c[nH]c2ccccc12)C(=O)N[C@@H](CC(C)C)C(=O)N[C@@H](CC(C)C)C(=O)N[C@@H](C)C(=O)NCC(=O)NCC(=O)N1CCC[C@H]1C(=O)N[C@@H](CO)C(=O)N[C@@H](CO)C(=O)NCC(=O)N[C@@H](C)C(=O)N1CCC[C@H]1C(=O)N1CCC[C@H]1C(=O)N1CCC[C@H]1C(=O)N[C@@H](CO)C(N)=O)C(C)C [Compound 18#] (H-Y[Aib]EGTFTSDYSIYK([AEEA-AEEA-γGlu-C20 diacid])EKIAAQEFVNWLLAGGPSSGAPPPS-NH2)
- viscera/brain ratio, Epididymal fat ([1]; 3 nmol/kg): 254.6 ± 113.4 %
- viscera/brain ratio, Inguinal fat ([1]; 3 nmol/kg): 281.5 ± 140.1 %
- viscera/brain ratio, Mesenteric fat ([1]; 3 nmol/kg): 84.8 ± 41.3 %
- viscera/brain ratio, Perirenal fat ([1]; 3 nmol/kg): 159.2 ± 87.6 %
- viscera/brain ratio, Scapular fat ([1]; 3 nmol/kg): 48 ± 15.3%
- viscera/brain ratio, Subcutaneous fat ([1]; 3 nmol/kg): 120 ± 62 %
- viscera/brain ratio, Epididymal fat ([1]; 10 nmol/kg): 211.7 ± 80.7 %
- viscera/brain ratio, Inguinal fat ([1]; 10 nmol/kg): 194.4 ± 86.2 %
- viscera/brain ratio, Mesenteric fat ([1]; 10 nmol/kg): 53.3 ± 14.6 %
- viscera/brain ratio, Perirenal fat ([1]; 10 nmol/kg): 109.4 ± 57.1 %
- viscera/brain ratio, Scapular fat ([1]; 10 nmol/kg): 42.5 ± 17^ %
- viscera/brain ratio, Subcutaneous fat ([1]; 10 nmol/kg): 122 ± 73.2 %
- viscera/brain ratio, Epididymal fat ([1]; 100 nmol/kg): 102.9 ± 32.2 %
- viscera/brain ratio, Inguinal fat ([1]; 100 nmol/kg): 92 ± 34.5 %
- viscera/brain ratio, Mesenteric fat ([1]; 100 nmol/kg): 27.4 ± 11.1 %
- viscera/brain ratio, Perirenal fat ([1]; 100 nmol/kg): 46.6 ± 18.2 %
- viscera/brain ratio, Scapular fat ([1]; 100 nmol/kg): 32.3 ± 7%
- viscera/brain ratio, Subcutaneous fat ([1]; 100 nmol/kg): 57.1 ± 21.2 %
- content of fat of each part (except scapular fat) relative to placebo group ([1]; all dose test groups): significantly reduced
- rate of change in body weight ([2]; 3 nmol/kg, day 0 (before administration)): 0%
- rate of change in body weight ([2]; 3 nmol/kg, day 1 after administration): −5 ± 0.6%
- rate of change in body weight ([2]; 3 nmol/kg, day 2 after administration): −6.3 ± 1 ^ %
- rate of change in body weight ([2]; 3 nmol/kg, day 3 after administration): −5.8 ± 1.9%
- rate of change in body weight ([2]; 3 nmol/kg, day 4 after administration): −9.1 ± 2.1 %
- rate of change in body weight ([2]; 3 nmol/kg, day 5 after administration): −10.3 ± 3.2 %
- rate of change in body weight ([2]; 3 nmol/kg, day 6 after administration): −10 ± 4.4 %
- rate of change in body weight ([2]; 3 nmol/kg, day 7 after administration): −13 ± 5.3 %
- rate of change in body weight ([2]; 3 nmol/kg, day 8 after administration): −13.9 ± 6.1 %
- rate of change in body weight ([2]; 3 nmol/kg, day 9 after administration): −13.9 ± 7.4 %
- rate of change in body weight ([2]; 3 nmol/kg, day 10 after administration): −16.6 ± 7.8 %
- rate of change in body weight ([2]; 3 nmol/kg, day 11 after administration): −16.4 ± 8.2 %
- rate of change in body weight ([2]; 3 nmol/kg, day 12 after administration): −15.7 ± 8.6 %
- rate of change in body weight ([2]; 3 nmol/kg, day 13 after administration): −18.2 ± 8.2 %
- rate of change in body weight ([2]; 3 nmol/kg, day 14 after administration): −17.1 ± 7.2 %
- rate of change in body weight ([2]; 3 nmol/kg, day 15 after administration): −15.7 ± 7.4 %
- rate of change in body weight ([2]; 3 nmol/kg, day 16 after administration): −18.6 ± 7 %
- rate of change in body weight ([2]; 3 nmol/kg, day 17 after administration): −18.3 ± 7***^ %
- rate of change in body weight ([2]; 3 nmol/kg, day 18 after administration): −17.9 ± 7.1 %
- rate of change in body weight ([2]; 3 nmol/kg, day 19 after administration): −20.5 ± 7.5 %
- rate of change in body weight ([2]; 3 nmol/kg, day 20 after administration): −19.8 ± 7.4 %
- rate of change in body weight ([2]; 3 nmol/kg, day 21 after administration): −17.8 ± 7.3 %
- rate of change in body weight ([2]; 3 nmol/kg, day 22 after administration): −19.3 ± 8.2 %
- rate of change in body weight ([2]; 3 nmol/kg, day 23 after administration): −19.1 ± 7.6 %
- rate of change in body weight ([2]; 3 nmol/kg, day 24 after administration): −17.3 ± 7.4 %
- rate of change in body weight ([2]; 3 nmol/kg, day 25 after administration): −19.9 ± 7.6 %
- rate of change in body weight ([2]; 3 nmol/kg, day 26 after administration): −18.8 ± 8 %
- rate of change in body weight ([2]; 3 nmol/kg, day 27 after administration): −16.1 ± 7.6 %
- rate of change in body weight ([2]; 3 nmol/kg, day 28 after administration): −19.2 ± 8***^ %
- body weight reduced ([2]; 10 nmol/kg dose group, day 27): more than 20.0%
- rate of change in body weight ([2]; 10 nmol/kg, day 0 (before administration)): 0%
- rate of change in body weight ([2]; 10 nmol/kg, day 1 after administration): −6.2 ± 1.1%
- rate of change in body weight ([2]; 10 nmol/kg, day 2 after administration): −8.6 ± 0.9 %
- rate of change in body weight ([2]; 10 nmol/kg, day 3 after administration): −9.4 ± 1.6 %
- rate of change in body weight ([2]; 10 nmol/kg, day 4 after administration): −12.7 ± 2.4 %
